In patent US6649656B1, “Anthranilic acid derivatives” (Teijin Limited, priority 1998, dated 2003):
Like-named read-outs stand apart in the source and are kept apart here. One block for each molecule: values may come before it.

What was measured:
Format in all cases: cell-based
[1] = tested on: IgG antibody production from human lymphocyte; test: Human in vitro IgG antibody production (same lymphocyte culture, sandwich ELISA); conditions: for inhibition at 1 µM: Homo sapiens, Lymphocyte, test drug concentration 1 μM, IL-4 + IL-10 + anti-CD40 antibody, read-out: IgG production suppressing ratio (%); for IC50: IgG antibody production
Description: (§1) The concentrations of IgE and IgG antibodies were measured by the following method according to the method described in the Journal of Immunology vol.146, pp.1836-1842, 1991 and the Journal of Immunology vol. 147, pp.8-13, 1991.
(§2) Concretely, lymphocyte was separated from the peripheral venous blood of healthy person by density gradient centrifugation. The obtained lymphocyte was washed, suspended in a culture liquid (RPMI-1640 (product of Gibco Co.)+10% heat-inactivated FCS (product of Whittaker Co.)+100 μg/ml streptomycin+100 U/ml penicillin G+2 mM L-glutamine) and cultured for a week in the presence of interleukin 4 (IL-4, product of GENZYME Co.) (0.1 μg/ml), anti-CD40 antibody (antiCD40Aab, product of BIOSOURCE Co.), clone B-B20) (2 μg/ml) and interleukin 10 (IL-10, product of GENZYME Co.) (0.2 μg/ml) in the presence or absence of the compounds of the present invention described in the Tables 10 to 15 at various concentrations as test drugs.
(§3) The culture liquid was added to the culture system, the culture was continued for additional one week, and the concentrations of IgE and IgG antibodies in the supernatant were measured by sandwich ELISA method.
(§4) The measurement by ELISA method was carried out according to the known ELISA method by using rabbit anti-human IgE(ε) antibody (product of ICN Co.) as the primary antibody and biotin.anti-human IgE monoclonal antibody (G7-26, product of PharMingen Co.) as the secondary antibody for the measurement of IgE antibody concentration and anti-human IgG monoclonal antibody (G18-145, product of PharMingen Co.) as the primary antibody and biotin-donkey anti-human IgG antibody (H+L) (product of Jackson Co.) as the secondary antibody for the measurement of IgG antibody concentration, and using avidin-biotin-hourse radish peroxidase (ABC kit, product of Vector Lab.) as the enzyme and TMB (3,3′,5,5′-tetramethylbenzidine) microwell peroxidase substrate system (product of Kirkegaard & Perry Laboratories Inc.) as the substrate.
(§5) The value of IC50 and the suppressing ratio (%) at the test drug concentration of 1 μM were calculated based on the concentration attained in the absence of the compound of the present invention (reference: Ueshimna, et al. American Academy of Allergy & Immunology, 1995 Annual Meeting, Program No.818).

[2] = tested on: IgE antibody production from human lymphocyte; test: Human in vitro IgE antibody production suppressing activity (lymphocyte culture with IL-4 + IL-10 + anti-CD40 antibody, sandwich ELISA); conditions: for IC50: IgE antibody production; for inhibition at 1 µM: test drug concentration 1 μM, IL-4 + IL-10 + anti-CD40 antibody, read-out: IgE production suppressing ratio (%)
Description: as §1, §2, §3, §4, §5

L929 cells = test: Measurement of cytotoxicity using mouse tumor cell L929 (neutral red assay)
Description: [Procedure] The cytotoxicity action on tumor cell was measured by neutral red assay (the method described in the Journal of Tissue Culture Methodology vol.9, p.7 (1984) and Toxicology Letters, vol.24, p.119 (1985)). Concretely, L929 cells (5×10^4 cells/ml, 10% FCS/RPMI) were added to the wells of a 96 well ELISA plate at a rate of 100 μL each and cultured for a night, and the testing compounds of respective measurement concentrations were dissolved in DMSO solution and added to the above cells. The culture was continued for 3 days, and 2.0 μL of Neutral Red was added to attain the final concentration of 0.01%. The mixture was incubated for 1 hour at 37° C., the supernatant of the cell culture product was removed and the residue was washed twice with 200 μL of PBS to remove excess Neutral Red. Thereafter, the dye taken into the cell was extracted by adding 100 μL of 50% ethanol-1% acetic acid aqueous solution and the amount of the dye was determined by measuring the absorbance at 490 nm. The cytotoxicity was determined at each concentration of the test compound taking the cytotoxicity free from the drug as 100%. […] Two sets of measurement were performed for each test under the same condition and the average value was used as the test result.

[3] = tested on: Cultured human cancer cells; test: Carcinostatic action on cultured human cancer cell (sulforhodamine B; GI50, TGI, LC50); conditions: for CC50 / GI50: Homo sapiens
Description: [Procedure] Cultured human cancer cells (39 kinds) were scattered on a 96 well plate, a solution of the testing substance (5-stage concentrations starting from 10^−4 M and diluted 10 times to 10^−8 M) was added thereto on the next day and the cells were cultured for 2 days. The number of the proliferated cells on each plate was determined by colorimetric quantitative analysis with sulforhodamine B. The concentration to suppress the proliferation of cell by 50% (GI50) compared with a control (free from the testing substance) was calculated and the following values (concentrations) were calculated based on the number of cells immediately before the addition of the testing substance.
TGI: concentration to suppress the proliferation to a standard cell number (free from the change of apparent number of cells)
LC50: concentration to decrease the number of cells to 50% of the standard cell number (cytocidal activity)
The proliferation-suppressing results of three testing substances 124, 257 and 983 on 9 representative cancer cell strains are collectively shown in the Tables 93 to 95.

[4] = 72 h, cytotoxic activity against L929, neutral red assay, 3 days culture, read-out: LD50 (the source's name)

SMILES: O=C(Cc1ccc(Oc2ccc(OC3CCC(NS(=O)(=O)c4ccccc4)CC3)cc2)cc1)Nc1ccccc1C(=O)O (stereo not drawn) [compound 121]
inhibition at 1 µM [1]: 77.5% | IC50 [1]: 0.543 µM | IC50 [2]: 0.027 µM | inhibition at 1 µM [2]: 100% | CC50 (L929 cells; L929, 72 h, read-out: LD50 (μM)): 1.8 µM

SMILES: O=C(Cc1ccc(Oc2ccc(OC3CCC(NS(=O)(=O)c4ccc(Cl)c(Cl)c4)CC3)cc2)cc1)Nc1ccccc1C(=O)O (stereo not drawn) [compound 124]
CC50 (L929 cells; [4]): 0.14 µM | TGI ([3]; HBC-4): 18 µM | TGI ([3]; HCT-15): 17 µM | CC50 ([3]; HBC4, HBC-4): 57 µM | GI50 ([3]; HBC4, HBC-4): 0.25 µM | CC50 ([3]; HCT-15): 58 µM | GI50 ([3]; HCT-15): 0.17 µM | CC50 ([3]; MKN-74): > 100 µM | GI50 ([3]; MKN-74): 0.086 µM | CC50 ([3]; NCI-H460): 69 µM | GI50 ([3]; NCI-H460): 0.091 µM | CC50 ([3]; OVCAR-8): 57 µM | GI50 ([3]; OVCAR-8): 3.1 µM | CC50 ([3]; PC-3): 55 µM | GI50 ([3]; PC-3): 10 µM | CC50 ([3]; RXF-631L): 38 µM | GI50 ([3]; RXF-631L): 0.13 µM | CC50 ([3]; SF-539): 57 µM | GI50 ([3]; SF-539): 0.13 µM | CC50 ([3]; LOX-IMVI): 45 µM | GI50 ([3]; LOX-IMVI): 0.09 µM | TGI ([3]; LOX-IMVI): 10 µM | TGI ([3]; MKN-74): 16 µM | TGI ([3]; NCI-H460): 14 µM | TGI ([3]; OVCAR-8): 23 µM | TGI ([3]; PC-3): 24 µM | TGI ([3]; RXF-631L): 12 µM | TGI ([3]; SF-539): 26 µM

SMILES: O=C(Cc1ccc(Oc2ccc(OC3CCC(NC(=O)Nc4ccccc4)CC3)cc2)cc1)Nc1ccccc1C(=O)O (stereo not drawn) [compound 138]
CC50 (L929 cells; [4]): 0.13 µM

SMILES: CNc1ccccc1C(=O)N[C@H]1CC[C@@H](Oc2ccc(Oc3ccc(CC(=O)Nc4ccccc4C(=O)O)cc3)cc2)CC1 [compound 156]
CC50 (L929 cells; [4]): 0.3 µM

SMILES: Cn1c(C(=O)N[C@H]2CC[C@@H](Oc3ccc(Oc4ccc(CC(=O)Nc5ccccc5C(=O)O)cc4)cc3)CC2)cc2ccccc21 [compound 167]
CC50 (L929 cells; [4]): 0.18 µM

SMILES: O=C(Cc1ccc(Oc2ccc(O[C@H]3CC[C@@H](NC(=O)c4ccc(-c5ccccc5)cc4)CC3)cc2)cc1)Nc1ccccc1C(=O)O [compound 192]
CC50 (L929 cells; [4]): 0.26 µM

SMILES: O=C(Cc1ccc(Oc2ccc(O[C@H]3CC[C@@H](NC(=O)c4ccc(Oc5cc(Cl)cc(Cl)c5)o4)CC3)cc2)cc1)Nc1ccccc1C(=O)O [compound 248]
CC50 (L929 cells; [4]): 0.085 µM

SMILES: O=C(Cc1ccc(Oc2ccc(OC3CCN(Sc4ccc(Cl)c(Cl)c4)CC3)cc2)cc1)Nc1ccccc1C(=O)O [compound 257]
TGI ([3]; HBC-4): 18 µM | TGI ([3]; HCT-15): 17 µM | CC50 ([3]; HBC4, HBC-4): 58 µM | GI50 ([3]; HBC4, HBC-4): < 0.01 µM | CC50 ([3]; HCT-15): 53 µM | GI50 ([3]; HCT-15): < 0.01 µM | CC50 ([3]; MKN-74): > 100 µM | GI50 ([3]; MKN-74): < 0.01 µM | CC50 ([3]; NCI-H460): 44 µM | GI50 ([3]; NCI-H460): < 0.01 µM | CC50 ([3]; OVCAR-8): 59 µM | GI50 ([3]; OVCAR-8): < 0.01 µM | CC50 ([3]; PC-3): 69 µM | GI50 ([3]; PC-3): 10 µM | CC50 ([3]; RXF-631L): 42 µM | GI50 ([3]; RXF-631L): < 0.01 µM | CC50 ([3]; SF-539): 51 µM | GI50 ([3]; SF-539): < 0.01 µM | CC50 ([3]; LOX-IMVI): 44 µM | GI50 ([3]; LOX-IMVI): < 0.01 µM | TGI ([3]; LOX-IMVI): 10 µM | TGI ([3]; MKN-74): 16 µM | TGI ([3]; NCI-H460): 11 µM | TGI ([3]; OVCAR-8): 23 µM | TGI ([3]; PC-3): 26 µM | TGI ([3]; RXF-631L): 14 µM | TGI ([3]; SF-539): 17 µM

SMILES: N#Cc1cccc(SN2CCC(Oc3ccc(Oc4ccc(CC(=O)Nc5ccccc5C(=O)O)cc4)cc3)CC2)c1 [compound 264]
CC50 (L929 cells; [4]): 0.156 µM

SMILES: O=C(Cc1ccc(Oc2ccc(OCC3(NSc4ccccc4)CCCC3)cc2)cc1)Nc1ccccc1C(=O)O [compound 268]
CC50 (L929 cells; [4]): 0.16 µM

IC50 [1]: 9.76 µM | IC50 [2]: 0.028 µM
SMILES: CCOCCOc1ccc(Oc2ccc(CC(=O)Nc3ccccc3C(=O)O)cn2)cc1 [compound 415]
inhibition at 1 µM [1]: -85.8% | inhibition at 1 µM [2]: 100%

IC50 [1]: > 10 µM | IC50 [2]: 0.04 µM
SMILES: O=C(Cc1ccc(Oc2ccc3cc(OCCN4CCOCC4)ccc3c2)nc1)Nc1ccccc1C(=O)O [compound 427]
inhibition at 1 µM [1]: > 10% | inhibition at 1 µM [2]: 96.4%

SMILES: O=C(Cc1ccc(Oc2ccc(OC3CCCCCCC3)cc2)nc1)Nc1ccccc1C(=O)O [compound 983]
TGI ([3]; HBC-4): 76 µM | TGI ([3]; HCT-15): 30 µM | CC50 ([3]; HBC4, HBC-4): > 100 µM | GI50 ([3]; HBC4, HBC-4): 0.59 µM | CC50 ([3]; HCT-15): > 100 µM | GI50 ([3]; HCT-15): 0.1 µM | CC50 ([3]; MKN-74): > 100 µM | GI50 ([3]; MKN-74): 0.46 µM | CC50 ([3]; NCI-H460): 95 µM | GI50 ([3]; NCI-H460): 0.33 µM | CC50 ([3]; OVCAR-8): > 100 µM | GI50 ([3]; OVCAR-8): 4.2 µM | CC50 ([3]; PC-3): > 100 µM | GI50 ([3]; PC-3): 4.5 µM | CC50 ([3]; RXF-631L): 96 µM | GI50 ([3]; RXF-631L): 0.4 µM | CC50 ([3]; SF-539): 51 µM | GI50 ([3]; SF-539): 0.6 µM | CC50 ([3]; LOX-IMVI): 50 µM | GI50 ([3]; LOX-IMVI): 0.26 µM | TGI ([3]; LOX-IMVI): 3.4 µM | TGI ([3]; MKN-74): 25 µM | TGI ([3]; NCI-H460): 16 µM | TGI ([3]; OVCAR-8): 40 µM | TGI ([3]; PC-3): 31 µM | TGI ([3]; RXF-631L): 18 µM | TGI ([3]; SF-539): 20 µM
